US8835425B2, “Use of selective GABA A α5 negative allosteric modulators for the treatment of central nervous system conditions” (Hoffmann-La Roche Inc., priority 2010, dated 2014)
Like-named read-outs stand apart in the source and are kept apart here.

Columns and labels:
human GABA A α1β2/3γ2 [1] = molecular target: T1, human GABA A α1β2/3γ2 (Homo sapiens, UniProt P14867+P18507); experiment: [3H]flumazenil competition binding, HEK293 cells expressing human α1β2/3γ2; set-up: expressed in transfected cells; host or cells: HEK293; details: for hKi α1/hKi α5: binding selectivity ratio
human GABA A α2β3γ2 [2] = molecular target: T2, human GABA A α2β3γ2 (Homo sapiens, UniProt P18507+P47869); experiment: Two-microelectrode voltage clamp, modulation of GABA EC10 response in Xenopus oocytes, α2β3γ2; format: cell-based; set-up: expressed in transfected cells; host or cells: Xenopus laevis oocytes; details: % change of EC10 GABA response at 3 μM or at 30×Ki if Ki below 0.1 μM
Method: (§1) Table 2b. […] Effect at human GABA A α5 receptors: % change of a submaximal (EC10) response to GABA determined at 30×Ki value from the flumazenil binding assay.
(§2) Subtype-selective effects were determined on cloned receptors expressed in Xenopus oocytes. Human recombinant GABA A receptors were expressed in Xenopus laevis oocytes. Current responses were evoked in two-microelectrode voltage-clamp condition by applying an EC10 of GABA before and during the co-application of the test compound. Response amplitudes in the presence of the test compound are expressed as percentage of the amplitudes before drug addition.

human GABA A α3β3γ2 [3] = molecular target: T3, human GABA A α3β3γ2 (Homo sapiens, UniProt P18507+P34903); experiment: Two-microelectrode voltage clamp, modulation of GABA EC10 response in Xenopus oocytes, α3β3γ2; format: cell-based; set-up: expressed in transfected cells; host or cells: Xenopus laevis oocytes; details: % change of EC10 GABA response at 3 μM or at 30×Ki if Ki below 0.1 μM
Method: as §1, §2

human GABA A α1β2/3γ2 [4] = molecular target: T1, human GABA A α1β2/3γ2; experiment: Two-microelectrode voltage clamp, modulation of GABA EC10 response in Xenopus oocytes, α1β2/3γ2; format: cell-based; set-up: expressed in transfected cells; host or cells: Xenopus laevis oocytes; details: % change of EC10 GABA response at 3 μM or at 30×Ki if Ki below 0.1 μM
human GABA A α5β3γ2 [5] = molecular target: T4, human GABA A α5β3γ2 (Homo sapiens, UniProt P18507+P31644); experiment: [3H]flumazenil competition binding, HEK293 cells expressing human α5β3γ2; set-up: expressed in transfected cells; host or cells: HEK293
human GABA A α3β3γ2 [6] = molecular target: T3, human GABA A α3β3γ2; experiment: [3H]flumazenil competition binding, HEK293 cells expressing human α3β3γ2; set-up: expressed in transfected cells; host or cells: HEK293; details: for hKi α3/hKi α5: binding selectivity ratio
human GABA A α5β3γ2 [7] = molecular target: T4, human GABA A α5β3γ2; experiment: Two-microelectrode voltage clamp, modulation of GABA EC10 response in Xenopus oocytes, α5β3γ2; format: cell-based; set-up: expressed in transfected cells; host or cells: Xenopus laevis oocytes; details: % change of submaximal (EC10) response to GABA at 30×Ki
Method: as §1, §2

human GABA A α2β3γ2 [8] = molecular target: T2, human GABA A α2β3γ2; experiment: [3H]flumazenil competition binding, HEK293 cells expressing human α2β3γ2; set-up: expressed in transfected cells; host or cells: HEK293; details: for hKi α2/hKi α5: binding selectivity ratio
[9] = [3H]flumazenil competition, human α1β2/3γ2, read-out: hKi α1
[10] = [3H]flumazenil competition, human α5β3γ2, read-out: hKi α5
[11] = [3H]flumazenil competition, human α3β3γ2, read-out: hKi α3
[12] = [3H]flumazenil competition, human α2β3γ2, read-out: hKi α2

Compound	Ki (human GABA A α1β2/3γ2 [1]; [9])	hKi α1/hKi α5 (human GABA A α1β2/3γ2 [1])	Efficacy GABA A α2β3γ2 (human GABA A α2β3γ2 [2])	Efficacy GABA A α3β3γ2 (human GABA A α3β3γ2 [3])	Efficacy GABA A α1β2/3γ2 (human GABA A α1β2/3γ2 [4])	Ki (human GABA A α5β3γ2 [5]; [10])	Ki (human GABA A α3β3γ2 [6]; [11])	hKi α3/hKi α5 (human GABA A α3β3γ2 [6])	Efficacy GABA A α5β3γ2 (human GABA A α5β3γ2 [7])	Ki (human GABA A α2β3γ2 [8]; [12])	hKi α2/hKi α5 (human GABA A α2β3γ2 [8])	Ki (human GABA A α1β2/3γ2 [1])	Ki (human GABA A α5β3γ2 [5])	Ki (human GABA A α3β3γ2 [6])	Ki (human GABA A α2β3γ2 [8])
Cc1onc(-c2ccccc2)c1COc1ccc(C(=O)NC(C)C)cn1 [Compound O1, N-Isopropyl-6-(5-methyl-3-phenyl-isoxazol-4-ylmethoxy)-nicotinamide]	504 nM	388	−34%	−43%	−19%	1.3 nM	110 nM	85	−50%	101 nM	77				
Clc1ncn2c1Cn1ncnc1-c1ccccc1-2 [Compound 8585, 10-Chloro-9H-imidazo[1,5-a][1,2,4]triazolo[1,5-d][1,4]benzodiazepine]		14			−37%			2	−41%		5				
Clc1ccc2c(c1)-c1ncnn1Cc1c(Cl)ncn1-2 [Compound 8586, 3,10-Dichloro-9H-imidazo[1,5-a][1,2,4]triazolo[1,5-d][1,4]benzodiazepine]		7	+2%	+7%	−5%			7	−33%		12	15.3 nM	2.1 nM	14 nM	23.7 nM
Cc1onc(-c2ccccc2)c1COc1ccc(C(=O)N2CC3(COC3)C2)cn1 [Compound Q1, [6-(5-Methyl-3-phenyl-isoxazol-4-ylmethoxy)-pyridin-3-yl]-(2-oxa-6-aza-spiro[3.3]hept-6-yl)-methanone]	633 nM	42	−18%	−17%	−11%	15.1 nM	400 nM	26	−35%	438 nM	29				
Cc1onc(-c2ccc(Cl)cn2)c1COc1ccc(C(=O)N2CCSCC2)cn1 [Compound W1, {6-[3-(5-Chloro-pyridin-2-yl)-5-methyl-isoxazol-4-ylmethoxy]-pyridin-3-yl}-thiomorpholin-4-yl-methanone]	34.6 nM	87				0.4 nM	17.7 nM	44		10.7 nM	27				
N#Cc1ccc2c(c1)-c1ncnn1Cc1c(C(F)F)ncn1-2 [Compound 8582, 3-Cyano-10-difluoromethyl-9H-imidazo[1,5-a][1,2,4]triazolo[1,5-d][1,4]benzodiazepine]	256 nM	16			−21%			6	−37%		15				
Cc1nc2n(n1)Cc1c(Cl)ncn1-c1ccc(C#N)cc1-2 [Compound 8587, 10-Chloro-3-cyano-6-methyl-9H-imidazo[1,5-a][1,2,4]triazolo[1,5-d][1,4]benzodiazepine]	250 nM	23			−28%		106 nM	10	−42%	141 nM	13		10.9 nM		
Cc1onc(-c2ccccn2)c1COc1ccc(C(=O)N2CCOCC2)cn1 [Compound T1, [6-(5-Methyl-3-pyridin-2-yl-isoxazol-4-ylmethoxy)-pyridin-3-yl]-morpholin-4-yl-methanone]	468 nM	32	+5%	+9%	−3%	14.6 nM	387 nM	27	−31%	293 nM	20				
Cc1onc(-c2ccc(F)cn2)c1COc1ccc(C(=O)NC(C)C)cn1 [Compound U1]			−34%	−21%	−15%				−33%						
Cc1nc2n(n1)Cc1c(Cl)ncn1-c1ccc(Br)cc1-2 [Compound 8589, 3-Bromo-10-chloro-6-methyl-9H-imidazo[1,5-a][1,2,4]triazolo[1,5-d][1,4]benzodiazepine]		37						35			37	226 nM	6.1 nM	216 nM	229 nM
FC(F)c1ccc2c(c1)-c1ncnn1Cc1c(Cl)ncn1-2 [Compound 8588, 10-Chloro-3-difluoromethyl-9H-imidazo[1,5-a][1,2,4]triazolo[1,5-d][1,4]benzodiazepine]		19						15			37				
Cc1onc(-c2ccccc2)c1COc1ccc(C(=O)N2CCn3cnnc3C2)cn1 [Compound P1, (5,6-Dihydro-8H-[1,2,4]triazolo[4,3-a]pyrazin-7-yl)-[6-(5-methyl-3-phenyl-isoxazol-4-ylmethoxy)-pyridin-3-yl]-methanone]						29.9 nM									
FCc1ncn2c1Cn1ncnc1-c1cc(F)ccc1-2 [Compound 8580, 3-Fluoro-10-fluoromethyl-9H-imidazo[1,5-a][1,2,4]triazolo[1,5-d][1,4]benzodiazepine]		5						3	−35%		3	43.9 nM			
Cc1nc2n(n1)Cc1c(CF)ncn1-c1ccc(Cl)cc1-2 [Compound 8584, 3-Chloro-10-fluoromethyl-6-methyl-9H-imidazo[1,5-a][1,2,4]triazolo[1,5-d][1,4]benzodiazepine]	125 nM	50						47			72				
Cc1onc(-c2ccc(Cl)cc2)c1COc1ccc(C(=O)N2CCOCC2)cn1 [Compound S1, {6-[3-(4-Chloro-phenyl)-5-methyl-isoxazol-4-ylmethoxy]-pyridin-3-yl}-morpholin-4-yl-methanone]	551 nM	102				5.4 nM	220 nM	41		209 nM	39				
Cc1ncn2c1Cn1nc(CN3CCCC3=O)nc1-c1cc(Br)ccc1-2 [Compound 8591, 3-Bromo-10-methyl-6-(2-oxo-pyrrolidin-1-ylmethyl)-9H-imidazo[1,5-a][1,2,4]triazolo[1,5-d][1,4]benzodiazepine]	624 nM	88	−7%	+23%	+4%		515 nM	73	−31%	669 nM	94		7.1 nM		
Fc1ccc2c(c1)-c1ncnn1Cc1c(Br)ncn1-2 [Compound 8590, 10-Bromo-3-fluoro-9H-imidazo[1,5-a][1,2,4]triazolo[1,5-d][1,4]benzodiazepine]		4						8			7				
Cc1onc(-c2ccc(F)cn2)c1COc1ccc(C(=O)N2CCS(=O)(=O)CC2)cn1 [Compound V1, (1,1-Dioxo-1λ,6-thiomorpholin-4-yl)-{6-[3-(5-fluoro-pyridin-2-yl)-5-methyl-isoxazol-4-ylmethoxy]-pyridin-3-yl}-methanone]	143 nM	119	+9%	+16%	0%	1.2 nM	76.1 nM	63	−33%	53.3 nM	44				
FC(F)c1ncn2c1Cn1ncnc1-c1ccccc1-2 [Compound 8583, 10-Difluoromethyl-9H-imidazo[1,5-a][1,2,4]triazolo[1,5-d][1,4]benzodiazepine]		18						7			9				
